Publication PMC9848351, “Discovery of new pyridine-quinoline hybrids as competitive and non-competitive PIM-1 kinase inhibitors with apoptosis induction and caspase 3/7 activation capabilities” (Journal of Enzyme Inhibition and Medicinal Chemistry, 2023)

Legend:
[1] = system: normal human lung fibroblast Wi-38 cell line; experiment: MTT cytotoxicity on normal cells; format: cell-based; details: Wi-38, 72 h, MTT, mean ± SEM; for EC50: Homo sapiens, 50% cell viability; for Wi-38 EC100: safe dose, 100% cell viability
Description: Cytotoxicity of the tested compounds was evaluated using normal human lung fibroblast Wi-38 cell line compared to currently used anticancer drug (doxorubicin) using MTT method was used for assaying cell viability[26] (Supplementary Page S55).
Cytotoxicity test is one of the biological evaluations and screening tests that use human normal and cancer cells in-vitro to observe the effect of the studied compounds on their growth using MTT-based cytotoxicity. Microculture MTT method[26] was used to determine cytotoxic activity of the newly synthesised compounds against normal human lung fibroblast (Wi-38) using doxorubicin (Dox) as standard anticancer drug. The highest IC50 and EC100 values illustrate that the compounds were safe on the proliferation of normal human cells. […]. page 47:
(§1) Cytotoxicity of the tested compounds was evaluated using normal human lung fibroblast Wi-38 cell line compared to currently used anticancer drug (doxorubicin).
Firstly, Wi-38 cell line was subcultured in DMEM medium-contained 10% fetal bovine serum (FBS), then, seeded as 5x10^3 cells per well in 96-well cell culture plate and incubated at 37 °C in 5% CO 2 incubator. Serial concentrations of these compounds and doxorubicin (Dox) were incubat ed with Wi-38 cells for 72 h after 24 h for cell attachment. MTT method was used for assaying cell viability 25. Twenty microliters of 5 mg/ml MTT (Sigma, USA) was added to each well and the plate was incubated at 37 °C for 3 h. Then MTT solution was removed, 100 µl DMSO was used and the absorbance of each well was measured with a microplate reader ( BMG LabTech, Germany) at 570 nm. The effective concentration (IC 50) and safe dose (EC100) values of the tested compounds that cause 50% and 100% cell viability were estimated by the Graphpad Instat software. […]

[2] = system: liver cancer cell line (HepG-2); experiment: MTT anticancer activity, HepG-2; format: cell-based, human; details: Homo sapiens, HepG2; HepG-2, 72 h, MTT; mean ± SEM
Description: (§2) Anticancer effect of the above-mentioned compounds was evaluated using four human cancer cell lines. Colon cancer cells (Caco-2), myeloid leukaemia cell line (NFS-60), liver cancer cell line (HepG-2) and prostate cancer cell line (PC-3) using MTT method was used for assaying cell viability[26] (Supplementary Page S55).
(§3) All final compounds were evaluated against four human cancer cell lines namely; liver cancer (HepG2) (ATCC® HB-8065™), colon cancer (Caco-2) (ATCC® HTB-37™), leukaemia cancer (NFS-60) (ATCC® CRL-1838™), and prostate cancer (PC-3) (ATCC® CRL-1435™) using doxorubicin (Dox) as the reference drug being widely used in tumour management utilising microculture MTT assay, declared by Mosmann[26] (Table 1 in Supplementary Material, Figures 5–8). […]
(§4) MTT method was used for assaying cell viability 25. Twenty microliters of 5 mg/ml MTT (Sigma, USA) was added to each well and the plate was incubated at 37 °C for 3 h. Then MTT solution was removed, 100 µl DMSO was used and the absorbance of each well was measured with a microplate reader ( BMG LabTech, Germany) at 570 nm. The effective concentration (IC 50) and safe dose (EC100) values of the tested compounds that cause 50% and 100% cell viability were estimated by the Graphpad Instat software.
(§5) Determination of the anticancer activity
(§6) Anticancer effect of the above-mentioned compounds was evaluated using four human cancer cell lines. Colon cancer cells (Caco-2) were maintained in DMEM (Lonza, USA) containing 10% FBS while myeloid leukemia cell line (NFS-60), liver cancer cell line (HepG-2) and prostate cancer cell line (PC-3) were cultured in RPMI-1640 (Lonza, USA) supplemented with 10% FBS. All cancer cells (5x10^3 cells/well) were seeded in sterile 96-well plates. After 24h, serial concentrations of the tested compounds and Dox were incubated with four cancer cell lines for 72 h at 37 °C in 5% CO2 incubator. MTT method was done as described above. The Graphpad Instat software was used for calculating the half maximal inhibitory concentration (IC50) values. Furthermore, phase contrast inverted microscope with a digital camera (Olympus, Japan) was used for investigating […]
(§7) safest anticancer compounds. […]

[3] = system: Colon cancer cells (Caco-2); experiment: MTT anticancer activity, Caco-2; format: cell-based, human; details: for IC50: Homo sapiens, Caco-2, 72 h, MTT, mean ± SEM; for Caco-2 SI: selectivity index, Wi-38 versus Caco-2
Description: as §2
All final compounds were evaluated against four human cancer cell lines namely; liver cancer (HepG2) (ATCC® HB-8065™), colon cancer (Caco-2) (ATCC® HTB-37™), leukaemia cancer (NFS-60) (ATCC® CRL-1838™), and prostate cancer (PC-3) (ATCC® CRL-1435™) using doxorubicin (Dox) as the reference drug being widely used in tumour management utilising microculture MTT assay, declared by Mosmann[26] (Table 1 in Supplementary Material, Figures 5–8).
as §1
Firstly, Wi-38 cell line was subcultured in DMEM medium-contained 10% fetal bovine serum (FBS), then, seeded as 5x10^3 cells per well in 96-well cell culture plate and incubated at 37 °C in 5% CO 2 incubator. Serial concentrations of these compounds and doxorubicin (Dox) were incubat ed with Wi-38 cells for 72 h after 24 h for cell attachment. MTT method was used for assaying cell viability 25. Twenty microliters of 5 mg/ml MTT (Sigma, USA) was added to each well and the plate was incubated at 37 °C for 3 h. Then MTT solution was removed, 100 µl DMSO was used and the absorbance of each well was measured with a microplate reader ( BMG LabTech, Germany) at 570 nm. The effective concentration (IC 50) and safe dose (EC100) values of the tested compounds that cause 50% and 100% cell viability were estimated by the Graphpad Instat software.
as §5, §6, §7

[4] = system: prostate cancer cell line (PC-3); experiment: MTT anticancer activity, PC-3; format: cell-based, human; details: Homo sapiens, 72 h, PC-3, 72 h, mean ± SEM
Description: as §2, §3, §4, §5, §6, §7

[5] = system: myeloid leukaemia cell line (NFS-60); experiment: MTT anticancer activity, NFS-60; format: cell-based; details: NFS-60, 72 h, MTT; mean ± SEM
Description: as §2, §3, §4, §5, §6, §7

HepG-2 = experiment: Flow cytometric annexin V/PI analysis of apoptosis, HepG-2; format: cell-based, human; details: IC50 of compound, 72 h, mean ± SEM
PC-3 = experiment: Flow cytometric annexin V/PI analysis of apoptosis, PC-3; format: cell-based, human; details: IC50 of compound, 72 h, mean ± SEM
Description: (§8) The apoptosis-dependent […] was determined by quantification of annexin-stained apoptotic cells using the FITC signal detector (FL1) against the phycoerythrin emission signal detector (FL2) (Supplementary Page S55). […]
(§9) MTT method was used for assaying cell viability 25. Twenty microliters of 5 mg/ml MTT (Sigma, USA) was added to each well and the plate was incubated at […]
(§10) 37 °C for 3 h. […]
(§11) Graphpad Instat software.
as §5
as §6, with “values.” for “values. Furthermore, phase contrast inverted microscope with a digital camera (Olympus, Japan) was used for investigating”
(§12) Flow cytometric analysis of apoptosis
(§13) Caco-2, PC-3 and NFS-60 cell lines. After trypsinization, the untreated and treated cells were incubated with annexin V/PI for 15 min. Then cells were fixed and incubated with streptavidin-fluorescein (5 µg/mL) for 15 min. The apoptosis-dependent anticancer effect was determined by quantification of annexin-stained apoptotic cells using the FITC signal detector (FL1) against the phycoerythrin emission signal detector (FL2). […]

NFS-60 = experiment: Flow cytometric annexin V/PI analysis of apoptosis, NFS-60; format: cell-based, human; details: IC50 of compound, 72 h, mean ± SEM
Description: as §8, §9, §10, §11, §5
as §6, with “values.” for “values. Furthermore, phase contrast inverted microscope with a digital camera (Olympus, Japan) was used for investigating”
as §12, §13

PIM-1 kinase [6] = target: T1, PIM-1 kinase (Homo sapiens, UniProt P11309); experiment: Mechanism of PIM-1 kinase inhibition, Lineweaver–Burk double-reciprocal plot; format: biochemical; design: purchased Promega Corporation #V4032
PIM-1 kinase [7] = target: T1, PIM-1 kinase; experiment: PIM-1 kinase inhibitory activity (Promega kinase assay kit)
Description: (§14) PIM-1 and PIM-2 kinase inhibitory activity
(§15) PIM-1 and PIM-2 kinase utilizing PIM-1 and PIM-2 Kinase Assay Kit – Promega Corporation catalog #V4032, following the manufacturer’s instructions 26

PIM-2 kinase = PIM-2 kinase (Homo sapiens, UniProt Q9P1W9); experiment: PIM-2 kinase inhibitory activity (Promega kinase assay kit)
Sequence of PIM-2 kinase (Q9P1W9 whole entry): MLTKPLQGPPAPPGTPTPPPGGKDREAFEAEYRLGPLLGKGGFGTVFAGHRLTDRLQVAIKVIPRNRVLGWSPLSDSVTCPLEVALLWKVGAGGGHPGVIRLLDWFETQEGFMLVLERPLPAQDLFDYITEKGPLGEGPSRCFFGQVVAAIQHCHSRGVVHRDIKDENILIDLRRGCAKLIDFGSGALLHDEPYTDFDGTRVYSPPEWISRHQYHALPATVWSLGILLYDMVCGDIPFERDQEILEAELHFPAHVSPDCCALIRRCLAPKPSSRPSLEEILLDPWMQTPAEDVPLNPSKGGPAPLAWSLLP
Description: as §14, §15

T1 sequence (P11309 whole entry): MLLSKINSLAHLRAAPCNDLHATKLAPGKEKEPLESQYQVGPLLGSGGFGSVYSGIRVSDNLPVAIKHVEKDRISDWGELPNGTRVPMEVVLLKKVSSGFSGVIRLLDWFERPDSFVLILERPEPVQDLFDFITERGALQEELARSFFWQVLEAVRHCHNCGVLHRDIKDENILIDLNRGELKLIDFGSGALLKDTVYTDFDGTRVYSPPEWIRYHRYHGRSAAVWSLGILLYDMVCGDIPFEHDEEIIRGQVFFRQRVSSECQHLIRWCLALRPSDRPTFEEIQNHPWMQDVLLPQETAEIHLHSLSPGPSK

IC50 [2] [nM] | IC50 [3] [nM] | Caco-2 LE ([3]; ligand efficiency from IC50 and number of heavy atoms) | Caco-2 LLE ([3]; ligand lipophilic efficiency, potency in terms of lipophilicity) | IC50 [4] [nM] | IC50 [5] [nM] | mechanism of PIM-1 kinase inhibition (PIM-1 kinase [6]) | Vmax compared with control (PIM-1 kinase [6]; Y-intercept) | IC50 (PIM-1 kinase [7]) [nM] | IC50 (PIM-2 kinase) [nM] | melting point [°C] | Structure (SMILES) | EC50 [1] [nM] | Wi-38 EC100 [1] [µM] | Caco-2 SI [3] | total percentage of the apoptotic cell population, HepG-2 (HepG-2) [%] | total percentage of the apoptotic cell population, PC-3 (PC-3) [%] | total percentage of the apoptotic cell population, NFS-60 (NFS-60) [%]
12.2 ± 0.1 | 27 ± 2 | 0.30 | 2.73 | 42.9 ± 3 | 53.9 ± 0.1 | competitive inhibitors | the same Vmax in comparison with control | 1100 | 1490 |  | COc1ccc2nc(N3CCCCC3)c(-c3cc(-c4cccc(O)c4)nc(S)c3C#N)cc2c1 [6e, 6-(3-Hydroxyphenyl)-4-(6-methoxy-2-(piperidin-1-yl)quinolin-3-yl)-2-mercaptopyridine-3-carbonitrile] | 155 ± 3 | 0.0277 ± 0.0001 | 5.741 | 69.02 ± 0.18 | 68.81 ± 0.49 | 68.385 ± 0.54
 |  |  |  |  |  |  |  |  | 610 |  | O=c1c(O)c(-c2ccc(O)c(O)c2)oc2cc(O)cc(O)c12 [Quercetin, reference compound] |  |  |  |  |  | 
48.6 | 34.7 ± 3 |  |  | 63.4 ± 2 | 523 ± 40 |  |  |  |  | > 300 | COc1ccc(NC(=O)COc2nc(-c3cccc(O)c3)cc(-c3cc4cc(OC)ccc4nc3N3CCOCC3)c2C#N)cc1 [11i, 2-((3-Cyano-6-(3-hydroxyphenyl)-4-(6-methoxy-2-morpholin-4-yl-quinolin-3-yl)pyridin-2-yl)oxy)-N-(4-methoxyphenyl)acetamide] | 258 ± 31 | 0.148 ± 0.0001 | 7.435 |  |  | 
74 ± 2 | 82.9 ± 3 |  |  | 70.9 ± 0.1 | 78.1 ± 7 |  |  |  |  | 230 to 232 | COc1ccc2nc(N3CCOCC3)c(-c3cc(-c4cccc(O)c4)nc(OCC(=O)Nc4ccc(Cl)cc4)c3C#N)cc2c1 [11h, N-(4-Chlorophenyl)-2-((3-cyano-6-(3-hydroxyphenyl)-4-(6-methoxy-2-morpholin-4-yl-quinolin-3-yl)pyridin-2-yl)oxy)acetamide] | 166 ± 3 | 0.0182 ± 0.001 | 2.002 |  |  | 
84.8 ± 2 | 99.9 ± 3 |  |  | 100.8 ± 0.1 | 145 ± 15 |  |  |  |  | > 300 | COc1ccc2nc(N3CCOCC3)c(-c3cc(-c4cccc(O)c4)nc(S)c3C#N)cc2c1 [6c, 6-(3-Hydroxyphenyl)-4-(6-methoxy-2-morpholin-4-yl-quinolin-3-yl)-2-mercaptopyridine-3-carbonitrile] | 376 ± 1 | 0.177 ± 0.011 | 3.764 |  |  | 
142.1 ± 1 | 127 ± 14 |  |  | 101 ± 1 | 153 ± 34 |  |  |  |  | > 300 | COc1ccc2nc(N3CCOCC3)c(-c3cc(-c4cccc(OC(C)=O)c4)[nH]c(=O)c3C#N)cc2c1 [7c, 3-(5-Cyano-4-(6-methoxy-2-morpholin-4-yl-quinolin-3-yl)-6-oxo-1,6-dihydropyridin-2-yl)phenyl acetate] | 137 ± 0.1 | 0.094 ± 0.005 | 1.079 |  |  | 
